Measured values reported in ChEMBL document CHEMBL1828571, “Discovery of novel selective norepinephrine inhibitors: 1-(2-morpholin-2-ylethyl)-3-aryl-1,3-dihydro-2,1,3-benzothiadiazole 2,2-dioxides (WYE-114152)” (J Med Chem, 2011).
Active and inactive are the calls of the source.

Key:
[1] = biological target: T1, Sodium-dependent serotonin transporter (Homo sapiens, UniProt P31645); type: cell-based, JAR
Target sequence in this assay (P31645 whole entry): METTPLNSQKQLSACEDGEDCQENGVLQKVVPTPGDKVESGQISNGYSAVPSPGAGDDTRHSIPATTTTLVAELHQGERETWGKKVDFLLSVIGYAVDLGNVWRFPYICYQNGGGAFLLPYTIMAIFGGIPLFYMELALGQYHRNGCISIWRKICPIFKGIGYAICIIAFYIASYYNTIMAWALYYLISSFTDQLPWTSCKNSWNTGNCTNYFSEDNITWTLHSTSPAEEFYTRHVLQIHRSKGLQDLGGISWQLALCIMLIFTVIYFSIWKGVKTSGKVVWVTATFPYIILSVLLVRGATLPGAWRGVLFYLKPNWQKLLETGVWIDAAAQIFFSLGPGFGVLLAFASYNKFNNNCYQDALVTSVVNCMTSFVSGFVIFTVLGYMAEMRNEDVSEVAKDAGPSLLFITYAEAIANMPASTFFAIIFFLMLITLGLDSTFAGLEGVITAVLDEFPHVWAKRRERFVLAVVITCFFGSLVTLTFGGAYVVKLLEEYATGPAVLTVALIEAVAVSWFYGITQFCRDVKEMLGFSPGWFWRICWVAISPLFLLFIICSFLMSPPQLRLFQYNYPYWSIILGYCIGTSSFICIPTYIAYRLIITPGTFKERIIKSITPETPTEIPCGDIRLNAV

[2] = biological target: T2, Sodium-dependent dopamine transporter (Homo sapiens, UniProt Q01959); test: Displacement of [3H]-WIN-35428 from human DAT expressed in CHO cells at 1 uM; type: cell-based
T2 sequence (Q01959 whole entry): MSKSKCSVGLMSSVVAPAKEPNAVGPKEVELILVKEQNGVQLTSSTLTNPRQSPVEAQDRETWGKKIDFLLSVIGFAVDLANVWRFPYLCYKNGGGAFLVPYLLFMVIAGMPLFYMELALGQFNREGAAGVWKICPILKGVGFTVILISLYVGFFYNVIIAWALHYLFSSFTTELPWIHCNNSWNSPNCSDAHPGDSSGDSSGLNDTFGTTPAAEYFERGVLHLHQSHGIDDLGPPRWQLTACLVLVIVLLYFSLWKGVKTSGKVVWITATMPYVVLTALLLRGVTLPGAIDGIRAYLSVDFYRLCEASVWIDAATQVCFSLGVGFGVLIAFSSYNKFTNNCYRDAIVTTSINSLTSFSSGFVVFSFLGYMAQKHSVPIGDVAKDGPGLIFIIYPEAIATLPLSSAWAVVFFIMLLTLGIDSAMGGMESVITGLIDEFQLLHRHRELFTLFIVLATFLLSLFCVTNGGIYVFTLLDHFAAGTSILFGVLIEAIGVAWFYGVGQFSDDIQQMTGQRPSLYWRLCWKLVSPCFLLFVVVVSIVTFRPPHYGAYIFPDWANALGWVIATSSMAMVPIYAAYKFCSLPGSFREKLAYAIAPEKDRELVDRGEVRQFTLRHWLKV

[3] = biological target: T3, Sodium-dependent noradrenaline transporter (Homo sapiens, UniProt P23975); test: biochemical
T3 sequence (P23975 whole entry): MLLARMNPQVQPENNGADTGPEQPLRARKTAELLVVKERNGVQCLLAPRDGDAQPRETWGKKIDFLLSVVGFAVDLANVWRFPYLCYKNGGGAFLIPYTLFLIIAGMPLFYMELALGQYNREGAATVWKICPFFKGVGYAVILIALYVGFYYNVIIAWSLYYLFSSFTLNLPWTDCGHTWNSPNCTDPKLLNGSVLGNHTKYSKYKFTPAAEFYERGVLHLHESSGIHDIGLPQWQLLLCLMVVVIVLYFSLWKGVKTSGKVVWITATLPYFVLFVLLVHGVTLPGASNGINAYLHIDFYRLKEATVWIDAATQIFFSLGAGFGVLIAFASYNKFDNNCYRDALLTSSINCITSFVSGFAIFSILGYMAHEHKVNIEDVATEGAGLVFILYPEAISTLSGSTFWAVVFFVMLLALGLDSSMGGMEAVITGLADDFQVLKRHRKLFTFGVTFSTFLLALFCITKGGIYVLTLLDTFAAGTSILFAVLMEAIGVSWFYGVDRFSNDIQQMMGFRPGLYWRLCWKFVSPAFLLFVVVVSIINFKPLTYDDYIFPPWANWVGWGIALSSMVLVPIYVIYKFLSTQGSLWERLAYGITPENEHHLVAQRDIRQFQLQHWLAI

[4] = biological target: T1, Sodium-dependent serotonin transporter; test: Inhibition of human SERT expressed in JAR cells assessed as serotonin uptake at 6 uM; type: cell-based
Target sequence in this assay (P31645 whole entry, looked up): as the sequence (P31645 whole entry) above

[5] = biological target: T2, Sodium-dependent dopamine transporter; test: biochemical
[6] = biological target: T3, Sodium-dependent noradrenaline transporter
Homo sapiens [7] = species: Homo sapiens; test: Selectivity ratio of IC50 for human NET over IC50 for human DAT
Rattus norvegicus [8] = test: Analgesic activity in Sprague-Dawley rat thermally-stimulated acute pain model assessed as increase in latency to nocicfensive response at 30 mg/kg, po after 1 to 5 hrs by hot plate assay; type: functional, organism-based; design: dose 30 mg/kg
Rattus norvegicus [9] = test: Analgesic activity against FCA-induced mechanical hyperalgesia in Sprague-Dawley rat assessed as threshold to paw withdrawal at 3 mg/kg, po administered 24 hrs after FCA challenge measured after 3 hrs; type: functional, organism-based; design: dose 3 mg/kg
Rattus norvegicus [10] = test: Analgesic activity against FCA-induced mechanical hyperalgesia in Sprague-Dawley rat assessed as threshold to paw withdrawal at 3 mg/kg, po administered 24 hrs after FCA challenge measured after 5 hrs; type: functional, organism-based; design: dose 3 mg/kg
Homo sapiens [11] = species: Homo sapiens; test: Selectivity ratio of IC50 for human NET over IC50 for human SERT
Rattus norvegicus [12] = test: Analgesic activity against carrageenan-induced hyperalgesia in Sprague-Dawley rat assessed as increase in paw withdrawal latency at 10 mg/kg, po after 4 hrs carrageenan challenge; type: functional, organism-based; design: dose 10 mg/kg
Rattus norvegicus [13] = test: Increase of serotonin level in Sprague-Dawley rat medial prefrontal cortex at 30 mg/kg, po by microdialysis assay; type: functional, organism-based; design: dose 30 mg/kg
[14] = AUC (0 to infinity) in rat at 10 mg/kg, po; type: ADME, organism-based; design: time infinity, dose 10 mg/kg, route oral; details: plasma
[15] = Volume of distribution at steady state in rat at 2 mg/kg, iv; type: ADME, organism-based; design: dose 2 mg/kg, route intravenous; details: in vivo, read-out: Vdss
[16] = Oral bioavailability in rat at 10 mg/kg; type: ADME, organism-based; details: in vivo
Rattus norvegicus [17] = test: Increase of norepinephrine level in Sprague-Dawley rat medial prefrontal cortex at 30 mg/kg, po by microdialysis assay relative to baseline; type: functional
[18] = Tmax in rat at 10 mg/kg, po; type: ADME, organism-based; design: dose 10 mg/kg, route oral; details: in vivo
[19] = AUC (0 to infinity) in rat at 2 mg/kg, iv; type: ADME, organism-based; design: time infinity, dose 2 mg/kg, route intravenous; details: plasma
[20] = Half life in rat at 10 mg/kg, po; type: ADME, organism-based; design: dose 10 mg/kg, route oral; details: in vivo
[21] = Ratio of drug level in brain to plasma in rat; type: ADME; details: read-out: BPR
Rattus norvegicus [22] = test: Analgesic activity in Sprague-Dawley rat thermally-stimulated acute pain model assessed as increase in latency to nocicfensive response at 10 mg/kg, po after 1 to 5 hrs by hot plate assay; type: functional, organism-based; design: dose 10 mg/kg
[23] = Plasma clearance in rat at 2 mg/kg, iv; type: ADME, organism-based; design: dose 2 mg/kg, route intravenous
Rattus norvegicus [24] = test: Analgesic activity against spinal nerve ligation-induced mechanical hyperalgesia in po dosed Sprague-Dawley rat assessed as threshold to paw withdrawal; type: functional, organism-based
Rattus norvegicus [25] = test: Analgesic activity against carrageenan-induced hyperalgesia in Sprague-Dawley rat assessed as increase in paw withdrawal latency at 30 mg/kg, po after 4 hrs carrageenan challenge; type: functional, organism-based; design: dose 30 mg/kg
[26] = Cmax in rat at 10 mg/kg, po; type: ADME, organism-based; design: dose 10 mg/kg, route oral; details: in vivo
[27] = Half life in rat at 2 mg/kg, iv; type: ADME, organism-based; design: dose 2 mg/kg, route intravenous; details: in vivo

CNC[C@@H](CCN1c2ccccc2N(c2ccccc2)S1(=O)=O)OC
IC50 [1]: 5100 nM
inhibition [2]: 39%
IC50 [3]: 13 nM

O=S1(=O)N(CC[C@@H]2CNCCO2)c2ccccc2N1c1ccccc1
IC50 [1]: 6770 nM
inhibition [4]: 55%
IC50 [3]: 5 nM

O=S1(=O)N(CC[C@H]2CNCCO2)c2ccccc2N1c1ccccc1
IC50 [1]: 1030 nM
inhibition [4]: 68%
IC50 [3]: 9 nM

O=S1(=O)N(CC[C@@H]2CNCCO2)c2ccccc2N1c1ccc(F)cc1
IC50 [5]: 211 nM
IC50 [3]: 283 nM

O=S1(=O)N(CC[C@@H]2CNCCO2)c2ccccc2N1c1c(F)cc(F)cc1F
IC50 [1]: 1400 nM
IC50 [3]: 80 nM

O=S1(=O)N(CCC2CNCCO2)c2cccc(F)c2N1c1ccccc1F (configuration not stated)
IC50 [1]: 5790 nM
inhibition [2]: 20%
IC50 [6]: 7 nM
IC50 [3]: 13 nM

O=S1(=O)N(CCC2CCCNC2)c2ccccc2N1c1ccccc1 (racemic)
IC50 [1]: 2980 nM
inhibition [2]: 95%
IC50 [6]: 54 nM
IC50 [3]: 30 nM

O=S1(=O)N(CCC2CNCCO2)c2ccccc2N1c1ccccc1 (racemic)
IC50 [1]: 1780 nM
IC50 [5]: 964 nM
IC50 [3]: 7 nM

CNC[C@H](O)CCN1c2ccccc2N(c2ccccc2F)S1(=O)=O
inhibition [4]: 28%

O=S1(=O)N(C[C@H]2CNCCO2)c2ccccc2N1c1ccccc1
IC50 [5]: 341 nM

COc1cccc(N2c3ccccc3N(CC[C@@H]3CNCCO3)S2(=O)=O)c1
IC50 [1]: 749 nM
IC50 [3]: 99 nM

O=S1(=O)N(CC[C@@H]2CNCCO2)c2ccccc2N1c1ccccc1F
Ratio IC50 (Homo sapiens [7]): > 548
Activity (Rattus norvegicus [8]): Active
Activity (Rattus norvegicus [9]): Active
IC50 [1]: 6410 nM
Activity (Rattus norvegicus [10]): Active
Ratio IC50 (Homo sapiens [11]): > 430
Activity (Rattus norvegicus [12]): Active
Activity (Rattus norvegicus [13]): inactive
AUC(0-inf) [14]: 1320 ng·h/mL
Vd [15]: 5 L/kg
bioavailability [16]: 28%
Activity (Rattus norvegicus [17]): 390%
Tmax [18]: 1 h
AUC(0-inf) [19]: 958 ng·h/mL
half-life [20]: 1.8 h
Kp [21]: 3.9
Activity (Rattus norvegicus [22]): Active
IC50 [6]: 15 nM
clearance [23]: 38 mL/min/kg
Activity (Rattus norvegicus [24]): Dose-dependent effect
Activity (Rattus norvegicus [25]): Active
Cmax [26]: 373 ng/mL
half-life [27]: 1.8 h
IC50 [3]: 5 nM

O=S1(=O)N(CC2CNCCO2)c2ccccc2N1c1ccccc1 (racemic)
inhibition [2]: 32%
IC50 [6]: 147 nM
inhibition [4]: 0%
IC50 [3]: 74 nM

O=S1(=O)N(CC[C@@H]2CNCCO2)c2ccccc2N1c1ccc(F)cc1F
IC50 [1]: 4130 nM
IC50 [5]: 2040 nM
IC50 [3]: 143 nM

O=S1(=O)N(CCC2CNCCO2)c2ccc(F)cc2N1c1ccccc1F (configuration not stated)
IC50 [1]: 806 nM
inhibition [2]: 23%
IC50 [6]: 120 nM
IC50 [3]: 209 nM

O=S1(=O)N(CCC2CNCCO2)c2cc(F)ccc2N1c1ccccc1F (configuration not stated)
IC50 [1]: 8350 nM
inhibition [2]: 43%
IC50 [6]: 14 nM
IC50 [3]: 8 nM

CNC[C@H](CCN1c2ccccc2N(c2ccccc2)S1(=O)=O)OC
IC50 [5]: 1040 nM
inhibition [4]: 52%
IC50 [3]: 103 nM

O=S1(=O)N(C[C@@H]2CNCCO2)c2ccccc2N1c1ccccc1
IC50 [5]: 792 nM

CN1CCOC(CN2c3ccccc3N(c3ccccc3)S2(=O)=O)C1 (racemic)
inhibition [2]: 77%
IC50 [3]: 2300 nM

O=S1(=O)N(CCC2CNCCO2)c2c(F)cccc2N1c1ccccc1F (configuration not stated)
IC50 [1]: 992 nM
inhibition [2]: 50%
IC50 [6]: 22 nM
IC50 [3]: 5 nM
